Data on 16 compounds can be found in PubChem BioAssay (NCI).

The structures appear in SMILES notation.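 Test compounds were applied to cells in 96-well plates for 48 hours at 5 doses. GI50: concentration for 50% inhibition of growth. TGI marks complete inhibition of growth.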 Some results are limits rather than exact numbers.

Holding throughout (experiment): NCI-60 cell line screen, 48 h
The test system of assay [1] is HOP-92 NSCLC.
Assay [2] has as its system SF-539 CNS.
In assay [3] the test system is OVCAR-5 ovarian.
Assay [4] concerns SR leukemia.
The test system of assay [5] is LOX IMVI melanoma.
In assay [6] the test system is UO-31 renal.
In assay [7] the test system is SK-OV-3 ovarian.
The test system of assay [8] is A549 NSCLC.
The subject of assay [9] is MALME-3M melanoma.
Assay [10] relates to HT29 colon.

With `O=C(NNc1ccc(F)cc1)C1CCC(CNS(=O)(=O)c2ccc(Cl)c(Cl)c2)CC1` (stereo not drawn), the GI50 in assay [1] was 7.35 µM; in assay [2], 9.77 µM; in assay [3], 7.7 µM; in [4], 17 µM; in [5], 2.08 µM; in [6], 16.8 µM. The values for the GI50 in assay [7] and in assay [8] were 28.9 µM and 0.842 µM, respectively. Further, the TGI is 37.5 µM in [1]; 39.1 µM in assay [2]; 25.2 µM in [3]; over 50 µM in assay [4]; 14.4 µM in [5]; over 50 µM in assay [6]. Moreover, the values for the TGI in assay [7] and in assay [8] were over 50 µM and 4.93 µM, respectively.
In the case of `CSCC[C@H](NC(=O)[C@H](CC(C)C)NC(=O)[C@@H](Cc1ccccc1)NC(=O)CNC(=O)[C@@H](NC(=O)[C@H](C)NC(=O)[C@H](Cc1c[nH]c2ccccc12)NC(=O)[C@H](CCC(N)=O)NC(=O)[C@H](N)CC(N)=O)C(C)C)C(N)=O`, the TGI in assay [9] was over 12.5 µM; in [1] it was over 12.5 µM; in assay [10], over 12.5 µM; in assay [2], over 12.5 µM; in assay [3] it was over 12.5 µM; in [4] it was 10.7 µM. Besides, the TGI in assay [5], in assay [7] and in assay [8] was over 12.5 µM each time.
On to `Cc1ccc(NC(=O)CC/C(CC(=O)C(C)(C)C)=N/NC(=O)C[N+](C)(C)C)cc1C`, for which the TGI in [9] is over 100 µM; in [10], over 100 µM; in assay [2], 44.8 µM; in assay [3], over 100 µM; in assay [4], over 100 µM; in assay [5], over 100 µM. Also, the TGI was over 100 µM in [6], over 100 µM in assay [7] and 59.4 µM in [8].
Consider `COc1ccc2c(c1)[n+]([O-])c(-c1ccc(Br)cc1)c(N)[n+]2[O-]`, for which the TGI in assay [9] was 60.1 µM; in assay [1], over 100 µM; in [10] it was over 100 µM; in assay [2], over 100 µM; in assay [3] it was over 100 µM; in assay [4] it was over 100 µM. The TGI in assay [6], in [7] and in [8] was over 100 µM throughout.
As to `N.N.O=P([O-])([O-])CN(CCN(CP(=O)([O-])[O-])CP(=O)([O-])[O-])CP(=O)([O-])[O-].[Pt+2]`, the GI50 in [9], in assay [1], in [10], in assay [2], in [3] and in assay [5] was over 100 µM in each case. The GI50 in assay [6], in [7] and in assay [8] was over 100 µM each time. Also, the TGI in assay [9], in [1], in assay [10], in assay [2], in assay [3] and in assay [5] was over 100 µM each time. In addition, the TGI in assay [6], in [7] and in [8] was over 100 µM each time.
Consider `CSc1nc2c(nc(N)n2C2OC(COC(C)=O)C(OC(C)=O)C(OC(C)=O)C2OC(C)=O)c(=O)n1C` (stereo not drawn), for which the TGI in assay [9], in assay [1], in [10], in [2], in [3] and in [5] was over 100 µM in each case. The TGI in [6], in assay [7] and in [8] was over 100 µM each time.
As for `COC(=O)NC(=Nc1ccc(Oc2ccccc2)cc1NC=O)NC(=O)OC`, the TGI is over 100 µM in assay [9]; over 100 µM in [1]; 2.96 µM in [10]; 2.49 µM in assay [2]; over 100 µM in assay [3]; over 100 µM in [5]. The TGI in assay [6] was 69.6 µM; in [7] it was 0.526 µM; in assay [8], over 100 µM.
Regarding `COc1ccc2c(c1)C1OCCNC1CC2` (stereo not drawn), the TGI in [9], in assay [10], in [2], in assay [3], in [4] and in assay [5] was over 100 µM throughout. Moreover, the TGI in assay [6], in [7] and in [8] was over 100 µM each time.
With `C/C=C(/CCC1NCCC2c3ccccc3NC12)[Si](C)(C)C` (stereo not drawn), the TGI in assay [1] was determined as 18.8 µM; in assay [10] it was 8.53 µM; in assay [2], 29.5 µM; in assay [3], 20 µM; in [4] it was 12.5 µM; in assay [5], 20.2 µM. In addition, the TGI was 20.2 µM in assay [6], 29.1 µM in assay [7] and 29.2 µM in assay [8].
Turning to `O=C1C(=O)c2ccccc2C(O)=C1CCCc1ccc(C2CCCC2)cc1`, the GI50 is 6.55 µM in assay [9]; 5.43 µM in [10]; 5.57 µM in assay [2]; 11 µM in assay [3]; 3.39 µM in assay [4]; 3.16 µM in assay [5]. For the same compound, the GI50 in assay [6] was 3.85 µM; in [7], 12.5 µM; in [8], 3.36 µM. For the same compound, the TGI worked out at 38 µM in assay [9]; 19.5 µM in assay [10]; 25.9 µM in [2]; 23.6 µM in [3]; 12.9 µM in assay [4]; 9.22 µM in [5]. The results for the TGI in [6], in assay [7] and in [8] were 15.5 µM, 56.9 µM and 32.9 µM, respectively.
Regarding `COC(=O)c1ccc2c(c1)C(=O)c1c-2n(C)c(=O)c2cc(OC)c(OC)cc12`, the GI50 was over 50 µM in assay [9]; 18.8 µM in assay [1]; over 50 µM in assay [10]; over 50 µM in assay [2]; over 50 µM in assay [3]; over 50 µM in assay [5]. Also, the GI50 in assay [6], in assay [7] and in [8] was over 50 µM in each case. Moreover, the TGI in assay [9], in [1], in assay [10], in assay [2], in [3] and in assay [5] was over 50 µM throughout. Also, the TGI in assay [6], in assay [7] and in assay [8] was over 50 µM in each case.
For `NS(=O)(=O)c1ccc(NCc2cnc3ccccc3n2)cc1`, the TGI in assay [9], in assay [1], in assay [10], in [2], in assay [3] and in assay [4] was over 100 µM each time. The TGI in [6], in assay [7] and in [8] was over 100 µM in each case.
Take `C[C@]12CC[C@H]3[C@@H](CCC4=CC(=O)CC[C@@]43C)[C@@H]1CC[C@@H]2C(=O)COS(=O)(=O)c1ccc(Br)cc1`: the TGI was 12.7 µM in [9]; 18.3 µM in assay [1]; 30.3 µM in [10]; over 60.7 µM in assay [2]; 35.2 µM in assay [3]; 3.12 µM in assay [4]. The TGI came to 3.5 µM in assay [6], 38.1 µM in [7] and 44.6 µM in [8].
As to `Clc1nc(Cl)c2c3c(sc2n1)CCCC3`, the GI50 in [9] was over 100 µM; in assay [1] it was 3.88 µM; in assay [10], 3.67 µM; in assay [2], over 100 µM; in assay [3], over 100 µM; in assay [5], 1.78 µM. Besides, the GI50 is over 100 µM in [7] and over 24.4 µM in assay [8]. The TGI in [9], in [1], in assay [10], in assay [2], in [3] and in assay [5] was over 100 µM each time. In addition, the TGI in assay [6], in [7] and in assay [8] was over 100 µM each time.
`NCCCn1c2c(c3ccc([N+](=O)[O-])cc3c1=O)C(=O)c1cc(-c3ccccc3)ccc1-2`: the GI50 is 1.36 µM in assay [1]; 0.19 µM in assay [10]; 1.37 µM in [2]; 1.48 µM in assay [3]; 0.183 µM in assay [4]; 0.916 µM in assay [5]. For the same compound, the GI50 in [6] is 1.73 µM; in assay [8], 0.237 µM. The TGI in [1] worked out at 3.15 µM; in [10], 0.368 µM; in assay [2] it was 2.84 µM; in [3], 2.95 µM; in assay [4] it was 0.46 µM; in [5], 2.59 µM. Also, the results for the TGI in assay [6] and in assay [8] were 3.41 µM and 0.552 µM, respectively.
On to `O=C(CC1(O)C(=O)Nc2ccccc21)c1ccc(F)cc1` (stereo not drawn), for which the TGI in [9], in assay [1], in assay [10], in [2], in assay [3] and in assay [5] was over 100 µM throughout. The TGI in [6], in assay [7] and in assay [8] was over 100 µM in each case.
